Values of other authors in US8025907B2, “Cosmetic composition to accelerate repair of functional wrinkles” (priority 2005, dated 2011).

Assays:
[1] = system: forehead expression lines; details: 28 days

Substance | wrinkle depth reduction by the hexapeptide component (wrinkles; after thirty days, after factoring the influence of the cosmetic base ingredient) | time before a visible reduction in wrinkles can occur (wrinkles; on average) | reduction of forehead expression lines [1]
acetyl hexapeptide-3 | less than 30% | up to 30 days | –
Dipeptide Diaminobutyroyl Benzalamide Diacetate | – | – | up to 52%
